# In patent US20200197385A1, “THERAPEUTIC AGENT FOR CANCER CONTAINING AXL INHIBITOR AS ACTIVE INGREDIENT” (ONO PHARMACEUTICAL CO., LTD., priority 2017, published 2020):
# Columns and labels:
# [1] = test system: mouse pancreatic cancer cell line Pan02 orthotopic implantation model; test: Antitumor action, orthotopic transplantation model, survival; format: in vivo; conditions: Pan02 orthotopic implantation mice; compound A 20 mg/kg/day via the diet; gemcitabine 60 mg/kg i.p. twice a week; Day 0 to Day 95
# Procedure: For the compound A, mouse feed CRF-1 containing 0.013% compound A was manufactured by Oriental Yeast Co., Ltd. so as to be administered in 20 mg/kg/day as administration via the diet. Gemcitabine was obtained from Wako Pure Chemical Industries, Ltd. C57/BL6 mouse pancreatic cancer cell line Pan02 was transplanted into the pancreas of the same type syngeneic mice (C57/BL6, female, 6-week old (Charles River Laboratories Japan, Inc.)) to produce Pan02 orthotopic implantation mice. On day 7 after transplantation, based on the body weight, the mice were assigned to four groups, i.e., a vehicle group, a gemcitabine group, compound A group, a combined use group of gemcitabine+compound A, and the compound A (each n=8 to 9). The day on which group assignment was carried out was defined as Day 0. To the vehicle group and the compound A group, PBS (10 mL/kg, twice a week) was intraperitoneally administered. To the gemcitabine group and a combined use group of gemcitabine+compound A, gemcitabine (60 mg/10 mL/kg, twice a week) was administered by intraperitoneal administration. To the compound A group and the combined use group of gemcitabine+compound A, CRF-1 containing 0.013% compound A was fed from Day 0. From Day 0 to Day 95, the survival time of each mouse in each group was evaluated. […]
# [2] = test system: human acute myeloid leukemia cell line CMK-11-5; test: In vitro combined use test, Cell Counting Kit-8; format: cell-based; conditions: 72 hours
# Procedure: A human acute myeloid leukemia cell line CMK-11-5 was prepared in an RPMI medium containing 10% FBS (10% FBS-RPMI medium) at about 30000 cells/mL, and seeded in a 96 well plate at 50 μL/well. To this, 10% FBS-RPMI medium containing ABBV-075 having 4 times higher concentration than the final concentration was added at 25 μL/well. Furthermore, 10% FBS-RPMI medium containing the compound A having 4 times higher concentration than the final concentration was added at 25 μL/well (final volume: 100 μL/well DMSO concentration: 0.2%). The plate was incubated at 37° C. in humidified air including 5% CO2 for 72 hours. After culturing, absorbance at 450 nm of a formazan product, proportional to the number of living cells, was measured using Cell Counting Kit-8. Percentage (%) of absorbance at 450 nm of each compound-treated group with respect to absorbance at 450 nm of the vehicle group was calculated.
# [3] = test system: leukemia cells in bone marrow derived from patient with acute myeloid leukemia; test: Proliferation test (CFDA-SE), bone marrow sample of acute myeloid leukemia patient, compound A combined with anticancer drugs; format: cell-based, human; conditions: 96 hours, Ci<1 synergistic action
# Procedure: (§1) Initial evaluation: Bone marrow samples were obtained from an adult acute myeloid leukemia patient. […] Furthermore, to evaluate the initial survival rate of cells, Annexin V was added to the above-mentioned combination of MAb.
# Proliferation test: Proliferation was measured using a CFDA-SE coloring agent. A coloring agent which had been prepared in advance was placed in 15-mL tube including bone marrow enough to obtain about 6000 cells/well of living leukemia cells. Thereafter, they were diluted with the medium such that the total volume became 1 mL. After the resultant product was mixed well by vortex, the mixture was incubated on a rotator at room temperature with light shielded for 10 minutes. Then, the tube was filled with cool RPMI1640 including 10% FBS (medium 2), and incubated on ice for 5 minutes to stop the reaction. Thereafter, the cells were washed with the medium 2 twice. For the final re-suspension before plating and incubation, the medium 1 replenished with a cytokine cocktail was used. […] The plate containing the sample was incubated at 37° C. in humidified air including 5% CO2 for 96 hours. In order to prepare a sample for analysis, erythrocytes were lysed after completion of incubation, and then, the sample was stained with the best combination of Mab and Annexin V to identify the leukemia cells in the sample. Finally, the plate was analyzed by ExviTech (registered trademark) platform.
# Data analysis: Synergistic analysis was carried out by calculating Combination Index (Ci) as described in Cancer Research, Vol. 70, No. 2, pp. 440-446, 2010. […] Note here that the meaning of the Ci value is regarded as follows.
# (§2) Ci<1: synergistic action, Ci=1: additive action, Ci>1: antagonistic action
# [4] = test system: human acute lymphatic leukemia cell line CCRF-HSB-2; test: In vitro combined use test, Cell Titer-Glo; format: cell-based; conditions: 72 hours
# Procedure: A human acute lymphatic leukemia cell line CCRF-HSB-2 was prepared in an IMDM medium containing 10% FBS (10% FBS-IMDM medium) at about 200000 cells/mL, and seeded in a 96 well plate at 50 μL/well. […] The plate was incubated at 37° C. in humidified air including 5% CO2 for 72 hours. After culturing, relative luminescence unit (RLU), proportional to cellular endogenous ATP amount, was measured by Cell Titer-Glo Luminescent Cell Viability Assay (registered trademark). Percentage (%) of RLU of each compound-treated group relative to RLU of the vehicle group was measured.
# [5] = test system: leukemia cells in bone marrow derived from patient with acute myeloid leukemia; test: Reduction test, bone marrow sample of acute myeloid leukemia patient, compound A combined with anticancer drugs; format: cell-based, human; conditions: 96 hours, Ci<1 synergistic action
# Procedure: as §1
# The plate containing the sample was incubated at 37° C. in humidified air including 5% CO2 for 96 hours. In order to prepare a sample for analysis, erythrocytes were lysed after completion of incubation, and then, the sample was stained with the best combination of Mab and Annexin V to identify the leukemia cells in the sample. Finally, the plate was analyzed by ExviTech (registered trademark) platform.
# Note here that the meaning of the Ci value is regarded as follows.
# as §2
structure (smiles),measurement,setting,value
"Nc1ccn([C@@H]2O[C@H](CO)[C@@H](O)C2(F)F)c(=O)n1 [Gemcitabine, gemcitabine]",Median value of survival days,[1],67 days
CCS(=O)(=O)Nc1ccc(Oc2ccc(F)cc2F)c(-c2cn(C)c(=O)c3[nH]ccc23)c1 [ABBV-075],absorbance at 450 nm in combined use with compound A compared with single use of each agent,[2],lowered
"CC[C@@H]1C(=O)N(C)c2cnc(Nc3ccc(C(=O)N[C@H]4CC[C@H](N5CCN(CC6CC6)CC5)CC4)cc3OC)nc2N1C(C)C [Volasertib, volasertib]",Ci median value in combined use with compound A,[3],0.830
"Nc1ccn([C@@H]2O[C@H](CO)[C@@H](O)[C@@H]2O)c(=O)n1 [Cytarabine, cytarabine]",Ci median value in combined use with compound A,[4],0.696
same,RLU in combined use with compound A compared with single use of each agent,[4],lowered
"COc1cccc2c1C(=O)c1c(O)c3c(c(O)c1C2=O)C[C@@](O)(C(C)=O)C[C@@H]3O[C@H]1C[C@H](N)[C@H](O)[C@H](C)O1 [Daunorubicin, daunorubicin]",Ci median value in combined use with compound A,[4],0.936
same,RLU in combined use with compound A compared with single use of each agent,[4],lowered
"CCCCc1nc2cc(/C=C/C(=O)NO)ccc2n1CCN(CC)CC [Plasinostat, plasinostat]",Ci median value in combined use with compound A,[5],0.440
"COc1cc(C(=O)O)ccc1NC(=O)[C@@H]1N[C@@H](CC(C)(C)C)[C@](C#N)(c2ccc(Cl)cc2F)[C@H]1c1cccc(Cl)c1F [Idasanutlin, idasanutlin]",Ci median value in combined use with compound A,[5],0.719
"C[C@@H]1C[C@H]2[C@@H]3CCC4=CC(=O)C=C[C@]4(C)[C@@]3(F)[C@@H](O)C[C@]2(C)[C@@]1(O)C(=O)CO [Dexamethasone, dexamethasone]",Ci median value in combined use with compound A,[4],0.589
"CCc1nc(C(N)=O)c(Nc2ccc(N3CCC(N4CCN(C)CC4)CC3)c(OC)c2)nc1NC1CCOCC1 [Gilteritinib, gilteritinib]",Ci median value in combined use with compound A,[3],0.495
"COc1cc2nccc(Oc3ccc(NC(=O)c4cc5c(n(-c6ccccc6)c4=O)CCCC5=O)nc3)c2cc1OC [Compound A, N-{5-[(6,7-dimethoxy-4-quinolinyl)oxy]-2-pyridinyl}-2,5-dioxo-1-phenyl-1,2,5,6,7,8-hexahydro-3-quinolinecarboxamide]",Median value of survival days,[1],54 days
"CO[C@@H]1[C@H](N(C)C(=O)c2ccccc2)C[C@H]2O[C@]1(C)n1c3ccccc3c3c4c(c5c6ccccc6n2c5c31)C(=O)NC4 [Midostaurin, midostaurin]",Ci median value in combined use with compound A,[3],0.673
